Experimental data reported in US20040204455A1, “Piperidine derivative rennin inhibitors” (priority 2003, published 2004).

The compounds below were run against T1, human renin (Homo sapiens, UniProt P00797) (assay: Determination of Renin IC50 by tGFP FRET Assay). Conditions: Human recombinant renin, tandem GFP substrate 650 nM, renin and compound incubated 60 minutes before substrate, pH 7.4.
T1 sequence (P00797 67-406): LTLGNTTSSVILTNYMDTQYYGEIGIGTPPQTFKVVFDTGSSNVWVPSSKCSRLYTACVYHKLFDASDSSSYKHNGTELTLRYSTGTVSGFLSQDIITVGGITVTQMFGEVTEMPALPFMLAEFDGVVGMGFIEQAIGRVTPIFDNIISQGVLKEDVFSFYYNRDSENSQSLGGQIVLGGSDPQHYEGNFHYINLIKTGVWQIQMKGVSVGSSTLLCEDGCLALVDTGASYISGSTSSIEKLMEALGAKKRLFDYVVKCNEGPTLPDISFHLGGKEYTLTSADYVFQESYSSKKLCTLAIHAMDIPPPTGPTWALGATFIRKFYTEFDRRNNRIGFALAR
Type: biochemical
Text: Determination of Renin IC50 by tGFP FRET Assay
The tGFP FRET (Green Fluorescent Protein Fluorescence Resonance Energy Transfer) assay utilizes a tandem GFP substrate (60 kDa) containing nine amino acid recognition sequences for human renin flanked by two GFP proteins. The assay is used to determine the ability of a compound to act as an inhibitor of renin enzymatic activity by determination of that concentration of test compound that inhibits by 50% (IC50) the ability of renin to cleave the tandem GFP substrate. The IC50 values are determined over an 11-point curve at concentrations of 100 μM to […]. Each compound concentration used to construct the curve was dependent on renin inhibitor potency. For example, subnanomolar IC50 values were determined over an 11-point curve at concentrations of 10 μM to […]. All other IC50 values were determined over an 11-point curve at concentrations of 100 μM to 0.0065 μM. The concentrations were achieved by diluting a 9.1 nM stock of Human recombinant renin in the appropriate amount of buffer containing 50 mM HEPES, 1 mM EDTA, 1% PEG (8000 MW), 1 mM DTT, 0.1% BSA, pH 7.4 to achieve the final concentration of 50.4 μIU. The tGFP substrate stock solution of 43 μM was diluted with the appropriate amount of the above buffer to obtain the final concentration of 650 nM. In addition, 1 μl of the compound is diluted in DSMO to represent an […] log scale (5% final). The renin and compound are added to a 384 capacity plate by an automated robot (BIOMEK). The plate is incubated for 60 minutes; upon completion the tGFP substrate is added.
The IC50 is determined by monitoring the increase in […] at 432/432 nm excitation, 530/475 nm emission with a cutoff at 515/455 nm, in a fluorometric plate reader.
`O=C1CCC(=O)N1CCOc1cccc(CN[C@H]2CNCC[C@H]2c2ccc(OCCCOCc3ccccc3F)cc2)c1` (racemic) [1-(2-{3-[(4-{4-[3-(2-Fluoro-benzyloxy)-propoxy]-phenyl}-piperidin-3-ylamino)-methyl]-phenoxy}-ethyl)-pyrrolidine-2,5-dione] showed an IC50 of 1400 nM.
With `O=C1CCCN1CCOc1cccc(CN[C@H]2CNCC[C@H]2c2ccc(OCCCOCc3ccccc3F)cc2)c1` (racemic) [1-(2-{3-[(4-{4-[3-(2-Fluoro-benzyloxy)-propoxy]-phenyl}-piperidin-3-ylamino)-methyl]-phenoxy}-ethyl)-pyrrolidine-2-one] the IC50 was 932 nM.
In the case of `COC(=O)c1cccc(CN[C@@H]2CNCC[C@@H]2c2ccc(OCCCOCc3ccccc3F)cc2)n1` (racemic) [6-[(4-{4-[3-(2-Fluoro-benzyloxy)-propoxy]-phenyl}-piperidin-3-ylamino)-methyl]-pyridine-2-carboxylic acid methyl ester], the IC50 is reported as 6980 nM.
For `COc1ccccc1COCCCOc1ccc([C@H]2CCNC[C@H]2NCc2ccc3cc(O)ccc3c2)cc1` (racemic) [6-[(4-{4-[3-(2-methoxy-benzyloxy)-propoxy]-phenyl}-piperidin-3-ylamino)-methyl]-naphthalen-2-ol], the IC50 was > 1000 nM.
In the case of `COc1ccccc1COCCCOc1ccc([C@H]2CCNC[C@H]2NCc2ccc3[nH]ccc3c2)cc1` (racemic) [(1H-indol-5-ylmethyl)-(4-{4-[3-(2-methoxy-benzyloxy)-propoxy]-phenyl}-piperidin-3-yl)-amine], the IC50 is reported as > 1000 nM.
`Fc1ccccc1COCCCOc1ccc([C@@H]2CCNC[C@@H]2NCc2ccc(F)c(C(F)(F)F)c2)cc1` (racemic) [(4-{4-[3-(2-fluoro-benzyloxy)-propoxy]-phenyl}-piperidin-3-yl)-(4-fluoro-3-trifluoromethyl-benzyl)-amine] gave an IC50 of 454 nM.
With `COc1ccccc1COCCCOc1ccc([C@H]2CCNC[C@H]2NCc2ccc3c(c2)NCCC3)cc1` (racemic) [(4-{4-[3-(2-methoxy-benzyloxy)-propoxy]-phenyl}-piperidin-3-yl)-(1,2,3,4-tetrahydro-quinolin-7-ylmethyl)-amine] the IC50 was 226 nM.
With `COc1ccc2cc(CN[C@@H]3CNCC[C@@H]3c3ccc(OCCCOCc4ccccc4OC)cc3)ccc2c1` (racemic) [(4-{4-[3-(2-methoxy-benzyloxy)-propoxy]-phenyl}-piperidin-3-yl)-(6-methoxy-naphthalen-2-ylmethyl)-amine] the IC50 was 74.3 nM.
`COc1ccccc1COCCCOc1ccc([C@H]2CCNC[C@H]2N(C)Cc2ccc3ccccc3c2)cc1` (racemic) [(4-{4-[3-(2-methoxy-benzyloxy)-propoxy]-phenyl}-piperidin-3-yl)-methyl-naphthalen-2-ylmethyl-amine] gave an IC50 of 573 nM.
With `COc1ccccc1COCCCOc1ccc([C@H]2CCNC[C@H]2NCc2ccc3ccccc3c2)cc1` (racemic) [(4-{4-[3-(2-methoxy-benzyloxy)-propoxy]-phenyl}-piperidin-3-yl)-naphthalen-2-ylmethyl-amine] the IC50 was 87 nM.
`COc1ccccc1COCCCOc1ccc([C@H]2CCNC[C@H]2NCc2ccc3cccnc3c2)cc1` (racemic) [(4-{4-[3-(2-methoxy-benzyloxy)-propoxy]-phenyl}-piperidin-3-yl)-quinolin-7-ylmethyl-amine] was tested, and the IC50 was 175 nM.
`O=S(=O)(N[C@@H]1CNCC[C@@H]1c1ccc(OCCCOCc2ccccc2F)cc1)c1ccc2ccccc2c1` (racemic) [Naphthalene-2-sulfonic acid (4-{4-[3-(2-fluoro-benzyloxy)-propoxy]-phenyl}-piperidin-3-yl)-amide] was tested, and the IC50 was 693 nM.
`COc1ccccc1COCCCOc1ccc([C@H]2CCNC[C@H]2NCc2ccc3c(c2)N(CCN(C)C)CCC3)cc1` (racemic) [[1-(2-dimethylamino-ethyl)-1,2,3,4-tetrahydro-quinolin-7-ylmethyl]-(4-{4-[3-(2-methoxybenzyloxy)-propoxy]-phenyl}-piperidin-3-yl)-amine] was tested, and the IC50 was > 1000 nM.
For `COc1ccccc1COCCCOc1ccc([C@H]2CCNC[C@H]2NCc2ccc3occc3c2)cc1` (racemic) [benzofuran-5-ylmethyl-(4-{4-[3-(2-methoxy-benzyloxy)-propoxy]-phenyl}-piperidin-3-yl)-amine], the IC50 was 393 nM.
In the case of `COc1ccccc1COCCCOc1ccc([C@H]2CCNC[C@H]2NC(=O)c2cccc3ccccc23)cc1` (racemic) [naphthalene-1-carboxylic acid (4-{4-[3-(2-methoxy-benzyloxy)-propoxy]-phenyl}-piperidin-3-yl)-amide], the IC50 is reported as > 1000 nM.
`COC(=O)COc1cccc(CN[C@H]2CNCC[C@H]2c2ccc(OCCCOCc3ccccc3F)cc2)c1` (racemic) [{3-[(4-{4-[3-(2-Fluoro-benzyloxy)-propoxy]-phenyl}-piperidin-3-ylamino)-methyl]-phenoxy}-acetic acid methyl ester] was tested, and the IC50 was 924 nM.
Work on `COC(=O)c1cccc2cc(CN[C@@H]3CNCC[C@@H]3c3ccc(OCCCOCc4ccccc4OC)cc3)ccc12` [6-[(4-[3-(2-methoxy-benzyloxy)-propoxyl]-phenyl}-piperidin-3-ylamino)-methyl]-naphthalene-1-carboxylic acid methyl ester] yielded an IC50 of 282 nM.
In the case of `COc1ccccc1COCCCOc1ccc([C@H]2CCNC[C@H]2NCc2ccc3c(C(=O)O)cccc3c2)cc1` [6-[(4-[4-(2-methoxy-benzyloxy)-propoxyl]-phenyl}-piperidin-3-ylamino)-methyl]-naphthalene-1-carboxylic acid], the IC50 is reported as 2600 nM.
Compound `COC(=O)c1ccc2cc(CN[C@@H]3CNCC[C@@H]3c3ccc(OCCCOCc4ccccc4F)cc3)ccc2c1` [6-[(4-{4-[3-(2-Fluoro-benyloxy)-propoxy]-phenyl}-piperidin-3-ylamino)-methyl]-naphthalene-2-carboxylic acid methyl ester] has an IC50 of 877 nM.
In the case of `O=C(O)c1ccc2cc(CN[C@@H]3CNCC[C@@H]3c3ccc(OCCCOCc4ccccc4F)cc3)ccc2c1` [6-[(4-{4-[3-(2-Fluoro-benyloxy)-propoxy]-phenyl}-piperidin-3-ylamino)-methyl]-naphthalene-2-carboxylic acid], the IC50 is reported as > 1000 nM.
Work on `COC(=O)c1ccc2cc(CN[C@@H]3CNCC[C@@H]3c3ccc(OCCCOCc4ccccc4OC)cc3)ccc2c1` [6-[(4-{4-[3-(2-Methoxy-benyloxy)-propoxy]-phenyl}-piperidin-3-ylamino)-methyl]-naphthalene-2-carboxylic acid methyl ester] yielded an IC50 of 329 nM.
